Drawing on patent US20080234288A1, “Hcv Inhibiting Sulfonamides” (priority 2003, published 2008), this text covers EC50 for 18 compounds.

The term EC50 denotes the concentration at which the effect is half-maximal. A higher EC50 goes with weaker potency.

Structures can show the parent of a compound that is named as a salt. Where only a bound is given, the exact number is not on record here.

The test system of the first test is HCV replicon (NS3-NS5B regions of HCV type 1b) in Huh-7 luc/neo cells. In words: HCV replicon assay, stable replicon cell reporter assay (Huh-Luc, luciferase). It counts as cell-based. As to conditions: Hepatitis C virus, Huh-7, 72 h, incubation of three days, luciferase activity. An excerpt:
The compounds of the present invention were examined for activity in the inhibition of HCV RNA replication in a cellular assay. […] The cellular assay was based on a bicistronic expression construct, as described by Lohmann et al. (1999) Science vol. 285 pp. 110-113 with modifications described by Krieger et al. (2001) Journal of Virology 75: 4614-4624, in a multi-target screening strategy. In essence, the method is as follows.
The assay utilized the stably transfected cell line Huh-7 luc/neo (hereafter referred to as Huh-Luc; kindly provided by Dr Ralf Bartenschlager, Reblikon GmBh, Germany). This cell line harbors an RNA encoding a bicistronic expression construct comprising the wild type NS3-NS5B regions of HCV type 1b translated from an Internal Ribosome Entry Site (IRES) from encephalomyocarditis virus (EMCV), preceded by a reporter portion (FfL-luciferase), and a selectable marker portion (neo^R, neomycine phosphotransferase). The construct was bordered by 5′ and 3′ NTRs (non-translated regions) from HCV type 1b. Continued culture of the replicon cells in the presence of G418 (neo^R) is dependent on the replication of the HCV RNA. The stably transfected replicon cells that express HCV RNA, which replicates autonomously and to high levels, encoding inter alia luciferase, were used for screening the antiviral compounds.
The replicon cells were plated in 384 well plates in the presence of the test and control compounds which were added in various concentrations. Following an incubation of three days, HCV replication was measured by assaying luciferase activity (using standard luciferase assay substrates and reagents and a Perkin Elmer ViewLux™ ultraHTS microplate imager). Replicon cells in the control cultures have high luciferase expression in the absence of any inhibitor. The inhibitory activity of the compound on luciferase activity was monitored on the Huh-Luc cells, enabling a dose-response curve for each test compound. EC50 values were then calculated, which value represents the amount of the compound required to decrease by 50% the level of detected luciferase activity, or more specifically, the ability of the genetically linked HCV replicon RNA to replicate (Table 1).
With `CC(C)CN(CC(O)C(Cc1ccccc1)NC(=O)OCc1cncs1)S(=O)(=O)c1ccc2nc(NC(=O)c3ccccn3)oc2c1` (stereo not drawn) [Compound 27, [1-Benzyl-2-hydroxy-3-(isobutyl-{2-[(pyridine-2-carbonyl)-amino]-benzooxazole-6-sulfonyl}-amino)-propyl]-carbamic acid thiazol-5-ylmethyl ester], the 50% effective concentration (EC50) was 2 to 10 µM.
The compound `CC(C)CN(CC(O)C(Cc1ccccc1)NC(=O)OCc1cncs1)S(=O)(=O)c1ccc2nc(N(C)C(=O)C3CCN(C)CC3)oc2c1` (stereo not drawn) [Compound 38, [1-Benzyl-2-hydroxy-3-(isobutyl-{2-[methyl-(1-methyl-piperidine-4-carbonyl)-amino]-benzooxazole-6-sulfonyl}-amino)-propyl]-carbamic acid thiazol-5-ylmethyl ester] showed a concentration for a half-maximal effect (EC50) of 10 to 32 µM.
The compound `CC(C)CN(CC(O)C(Cc1ccccc1)NC(=O)OCc1cncs1)S(=O)(=O)c1ccc2nc[nH]c2c1` (stereo not drawn) [Compound 20, {3-[(3H-Benzoimidazole-5-sulfonyl)-isobutyl-amino]-1-benzyl-2-hydroxy-propyl}-carbamic acid thiazol-5-ylmethyl ester] displayed an EC50 of 10 to 32 µM.
On the same count and under the same terms, under `CC(C)CN(CC(O)C(Cc1ccccc1)NC(=O)OCc1cnc(Cl)s1)S(=O)(=O)c1ccc2nc(N)oc2c1` (stereo not drawn) [Compound 28, {3-[(2-Amino-benzooxazole-6-sulfonyl)-isobutyl-amino]-1-benzyl-2-hydroxy-propyl}-carbamic acid 2-chloro-thiazol-5-ylmethyl ester] stands 2 to 10 µM.
`CC(C)CN(CC(O)C(Cc1ccccc1)NC(=O)OCc1cncs1)S(=O)(=O)c1ccc2nc(N(C)CCN3CCCC3)oc2c1` (stereo not drawn) [Compound 6, {1-Benzyl-2-hydroxy-3-(isobutyl-{2-[methyl-(2-pyrrolidin-1-yl-ethyl)-amino]-benzooxazole-6-sulfonyl}-amino)-propyl]-carbamic acid thiazol-5-ylmethyl ester] returned an EC50 of 10 to 32 µM.
Regarding `CC(C)CN(CC(O)C(Cc1ccccc1)NC(=O)OCc1cncs1)S(=O)(=O)c1ccc2nc(NC(=O)c3cccnc3)oc2c1` (stereo not drawn) [Compound 4, [1-Benzyl-2-hydroxy-3-(isobutyl-{2-[(pyridine-3-carbonyl)-amino]-benzooxazole-6-sulfonyl}-amino)-propyl]-carbamic acid thiazol-5-ylmethyl ester], the concentration giving a half-maximal response (EC50) fell in the range of 2 to 10 µM.
On the same count and under the same terms, under `CC(C)CN(CC(O)C(Cc1ccccc1)NC(=O)OCc1cncs1)S(=O)(=O)c1ccc2nc(N(C)C(=O)c3ccoc3)oc2c1` (stereo not drawn) [Compound 10, [1-Benzyl-3-({2-[(furan-3-carbonyl)-methyl-amino]-benzo-oxazole-6-sulfonyl}-isobutyl-amino)-2-hydroxy-propyl]-carbamic acid thiazol-5-ylmethyl ester] stands 2 to 10 µM; under `CC(C)CN(CC(O)C(Cc1ccccc1)NC(=O)OCc1cncs1)S(=O)(=O)c1ccc2nc(N)oc2c1` (stereo not drawn) [Compound 45, {3-[(2-Amino-benzooxazole-6-sulfonyl)-isobutyl-amino]-1-benzyl-2-hydroxy-propyl}-carbamic acid thiazol-5-ylmethyl ester], 2 to 10 µM; under `CC(C)CN(CC(O)C(Cc1ccccc1)NC(=O)OCc1cncs1)S(=O)(=O)c1ccc2ncn(CC(C)C)c2c1` (stereo not drawn) [Compound 42, {1-Benzyl-2-hydroxy-3-[isobutyl-(3-isobutyl-3H-benzo-imidazole-5-sulfonyl)-amino]-propyl}-carbamic acid thiazol-5-ylmethyl ester], 2 to 10 µM.
`CC(=O)N(C)c1nc2ccc(S(=O)(=O)N(CC(C)C)CC(O)C(Cc3ccccc3)NC(=O)OCc3cncs3)cc2s1` (stereo not drawn) [Compound 21, (3-{[2-(Acetyl-methyl-amino)-benzothiazole-6-sulfonyl]-isobutyl-amino}-1-benzyl-2-hydroxy-propyl)-carbamic acid thiazol-5-ylmethyl ester] registered an EC50 of 10 to 32 µM.
On to `CC(C)CN(CC(O)C(Cc1ccccc1)NC(=O)OCc1cncs1)S(=O)(=O)c1ccc2nc(NCCN3CCNCC3)sc2c1` (stereo not drawn) [Compound 18, (1-Benzyl-2-hydroxy-3-{isobutyl-[2-(2-piperazin-1-yl-ethyl-amino)-benzothiazole-6-sulfonyl]-amino}-propyl)-carbamic acid thiazol-5-ylmethyl ester], for which the EC50 lay within 2 to 10 µM.
The same measure, in the same setting: under `CC(C)CN(CC(O)C(Cc1ccccc1)NC(=O)OCc1cncs1)S(=O)(=O)c1ccc2nc(NC(=O)c3ccoc3)oc2c1` (stereo not drawn) [Compound 25, [1-Benzyl-3-({2-[(furan-3-carbonyl)-amino]-benzooxazole-6-sulfonyl}-isobutyl-amino)-2-hydroxy-propyl]-carbamic acid thiazol-5-ylmethyl ester] stands under 2 µM; under `CC(C)CN(CC(O)C(Cc1ccccc1)NC(=O)OCc1cncs1)S(=O)(=O)c1ccc2nc(N(C)C(=O)c3ccccn3)oc2c1` (stereo not drawn) [Compound 36, [1-Benzyl-2-hydroxy-3-(isobutyl-{2-[methyl-(pyridine-2-carbonyl)-amino]-benzooxazole-6-sulfonyl}-amino)-propyl]-carbamic acid thiazol-5-ylmethyl ester], 10 to 32 µM.
Still for that read-out and setting: under `CC(C)CN(CC(O)C(Cc1ccccc1)NC(=O)OCc1cncs1)S(=O)(=O)c1ccc2nc(N(C)C(=O)C3CCCN3C)oc2c1` (stereo not drawn) [Compound 40, [1-Benzyl-2-hydroxy-3-(isobutyl-{2-[methyl-(1-methyl-pyrrolidine-2-carbonyl)-amino]-benzooxazole-6-sulfonyl}-amino)-propyl]-carbamic acid thiazol-5-ylmethyl ester trifluoroacetate salt] stands 10 to 32 µM; under `Nc1nc2ccc(S(=O)(=O)N(Cc3ccccn3)CC(O)C(Cc3ccccc3)NC(=O)OCc3cncs3)cc2o1` (stereo not drawn) [Compound 22, {3-[(2-Amino-benzooxazole-6-sulfonyl)-pyridin-2-ylmethyl-amino]-1-benzyl-2-hydroxy-propyl}-carbamic acid thiazol-5-ylmethyl ester trifluoroacetate salt], over 32 µM; under `CC(C)CN(CC(O)C(Cc1ccccc1)NC(=O)OCc1cncs1)S(=O)(=O)c1ccc2nc(NC(=O)c3ccc(O)nc3)oc2c1` (stereo not drawn) [Compound 3, [1-Benzyl-2-hydroxy-3-({2-[(6-hydroxy-pyridine-3-carbonyl)-amino]-benzooxazole-6-sulfonyl}-isobutyl-amino)-propyl]-carbamic acid thiazol-5-ylmethyl ester], under 2 µM.
The same measure, in the same setting: under `CC(C)CN(CC(O)C(Cc1ccccc1)NC(=O)OCc1cncs1)S(=O)(=O)c1ccc2nc(NCCN3CCCC3)sc2c1` (stereo not drawn) [Compound 15, (1-Benzyl-2-hydroxy-3-{isobutyl-[2-(2-pyrrolidin-1-yl-ethyl-amino)-benzothiazole-6-sulfonyl]-amino}-propyl)-carbamic acid thiazol-5-ylmethyl ester] stands 2 to 10 µM.

Still in this test, the particulars now being: incubation of three days, luciferase activity.
On to `CC(C)CN(CC(O)C(Cc1ccccc1)NC(=O)OCc1cncs1)S(=O)(=O)c1ccc2nc(NC(=O)C3CCC(=O)N3)oc2c1` (stereo not drawn) [Compound 23, [1-Benzyl-2-hydroxy-3-(isobutyl-{2-[(5-oxo-pyrrolidine-2-carbonyl)-amino]-benzooxazole-6-sulfonyl}-amino)-propyl]-carbamic acid thiazol-5-yl methyl ester], for which the EC50 lay within 10 to 32 µM.
